Laboratory results: publication PMC7698306, “Exploring the Role of a Novel Peptide from Allomyrina dichotoma Larvae in Ameliorating Lipid Metabolism in Obesity” (International Journal of Molecular Sciences, 2020)
No end group written: not given here.

Test system: HFD-fed mice
Test: Oral glucose tolerance test, insulin levels and insulin resistance indices in HFD-fed mice
Assay type: in vivo, C57BL/6 mice
Excerpt: Four-week-old male C57BL/6 mice were purchased from the Nara Bio Animal Center (NARA Biotech, Seoul, Korea) All experiments were approved by the Institutional Animal Care and Use Committee of Konkuk University (14 July 2019). All possible efforts were made to minimize the suffering and the animal count utilized in this study (KU19102). The mice were randomly divided into the following two groups after 1 week of acclimatization: n = 8 in the control group, fed a normal diet (Control, fat content of 10% kcal), and n = 30, fed a high-fat diet (HFD, fat content of 60% kcal). Mice were registered daily for food intake, and their body weights were assessed twice a week. […] HFD + EIA10, 100 mg/kg/d; and HFD + orlistat, 60 mg/kg /d for 5 weeks. As a positive control, Orlistat was used. After 12 weeks, the mice were subjected to fasting overnight and sacrificed (Figure 2A). Blood samples were harvested for further analysis. Sections of epididymal adipose and liver tissues were fixed in 10% formaldehyde for histological analyses and frozen in liquid nitrogen. An oral glucose tolerance test (OGTT) to determine the clearance of a standardized glucose load was performed after 5 weeks of oral administration. Plasma glucose was determined under postabsorptive conditions with blood collected at time ‒30 and 0 and then after oral administration of 1 g/kg of glucose at 30, 60, 90, and 120 min. Using a Blood Glucose Testing System (891 Hogye-Dong Dongan-gu, Anyang, Gyeonggi-do, Korea), blood samples were measured from the tail veins. A mouse ultrasensitive insulin ELISA package (ALPCO, Salem, NH, USA) was quantified for serum insulin. The hepatic insulin resistance index (hepatic IRI) was estimated by using the validated method of Matsuda and DeFronzo [43]. Insulin resistance was assessed using the homeostasis model assessment of insulin resistance (HOMA-IR). HOMA is a mathematically derived model of glucose–insulin feedback.

EIAQDFKTDL [EIA10] was tested, and the “insulin resistance (hepatic IRI, HOMA-IR)” value (five weeks of oral EIA10 in obese mice, Figure 3E,F) was “alleviated IR in the obese mice to some extent”, the “area under the OGTT curve (AUC)” value (oral glucose 1 g/kg after 12 h fast, vs HFD group, p < 0.05, Figure 3B) was “significantly lower” and the “insulin secretion level after oral glucose” value (oral glucose 1 g/kg, vs HFD group, p < 0.05, Figure 3C,D) was “decreased”.
